According to the supplement of paper PMC10307832:

What was measured:
Assay in all cases: relative viability (nuclei count vs DMSO), 5 days (fraction); higher = more cells survive
NCI-H1793 = system: NCI-H1793
Procedure, shortened: (§1)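 The day after seeding in 1536-well plates, lung cancer cell lines were treated by pin tool with a single drug, or with a fixed anchor-drug dose together with five library-drug doses (not always all listed) in √10 steps. After 5 days, a combined fix-and-stain solution (final 0.05% Triton X-100, 1% formaldehyde, 1 ug/ml Hoechst) was added. Nuclei counted on 4× images gave relative viability as treated counts over vehicle counts, reported as the median of duplicate plates.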

NCI-H3122 = system: NCI-H3122
Procedure, shortened: as §1

LCLC-97TM1 = system: LCLC-97TM1
Procedure, shortened: as §1

NCI-H727 = system: NCI-H727
Procedure, shortened: as §1

CAL-12T = system: CAL-12T
Procedure, shortened: as §1

NCI-H2405 = system: NCI-H2405
Procedure, shortened: as §1

NCI-H1395 = system: NCI-H1395
Procedure, shortened: as §1

NCI-H647 = system: NCI-H647
Procedure, shortened: as §1

LXF-289 = system: LXF-289
Procedure, shortened: as §1

NCI-H2087 = system: NCI-H2087
Procedure, shortened: as §1

RERF-LC-KJ = system: RERF-LC-KJ
Procedure, shortened: as §1

BEN = system: BEN
Procedure, shortened: as §1

201T = system: 201T
Procedure, shortened: as §1

NCI-H1355 = system: NCI-H1355
Procedure, shortened: as §1

HCC-827 = system: HCC-827
Procedure, shortened: as §1

NCI-H322M = system: NCI-H322M
Procedure, shortened: as §1

HCC-44 = system: HCC-44
Procedure, shortened: as §1

HOP-62 = system: HOP-62
Procedure, shortened: as §1

NCI-H1437 = system: NCI-H1437
Procedure, shortened: as §1

LCLC-103H = system: LCLC-103H
Procedure, shortened: as §1

## C[C@@H]1CN(CC(=O)Nc2ccc3c(c2)Cc2cccc(-c4cc(=O)cc(N5CCOCC5)o4)c2S3)C[C@H](C)O1 + NC(=O)Nc1cc(-c2cccc(F)c2)sc1C(=O)N[C@H]1CCCNC1 [AZD7762] (partner 0.2 µM)
NCI-H1793; first compound 0.04 µM
  relative viability: 0.588
NCI-H1793; first compound 0.1265 µM
  relative viability: 0.514
NCI-H1793; first compound 0.4 µM
  relative viability: 0.404
NCI-H1793; first compound 4 µM
  relative viability: 0.25
NCI-H3122; first compound 0.04 µM
  relative viability: 1.01
NCI-H3122; first compound 0.1265 µM
  relative viability: 0.922
NCI-H3122; first compound 0.4 µM
  relative viability: 1.05
NCI-H3122; first compound 4 µM
  relative viability: 0.733
LCLC-97TM1; first compound 0.1265 µM
  relative viability: 0.222
LCLC-97TM1; first compound 0.4 µM
  relative viability: 0.231
LCLC-97TM1; first compound 4 µM
  relative viability: 0.221
NCI-H727; first compound 0.04 µM
  relative viability: 0.525
NCI-H727; first compound 0.1265 µM
  relative viability: 0.625
NCI-H727; first compound 0.4 µM
  relative viability: 0.501
NCI-H727; first compound 4 µM
  relative viability: 0.7
CAL-12T; first compound 0.04 µM
  relative viability: 0.644
CAL-12T; first compound 0.1265 µM
  relative viability: 0.565
CAL-12T; first compound 0.4 µM
  relative viability: 0.594
CAL-12T; first compound 4 µM
  relative viability: 0.38
NCI-H2405; first compound 0.04 µM
  relative viability: 0.703
NCI-H2405; first compound 0.1265 µM
  relative viability: 0.795
NCI-H2405; first compound 0.4 µM
  relative viability: 0.792
NCI-H2405; first compound 4 µM
  relative viability: 0.676
NCI-H1395; first compound 0.1265 µM
  relative viability: 0.425
NCI-H1395; first compound 0.4 µM
  relative viability: 0.411
NCI-H1395; first compound 4 µM
  relative viability: 0.406
NCI-H647; first compound 0.04 µM
  relative viability: 0.346
NCI-H647; first compound 0.1265 µM
  relative viability: 0.46
NCI-H647; first compound 0.4 µM
  relative viability: 0.515
NCI-H647; first compound 4 µM
  relative viability: 0.309
LXF-289; first compound 0.04 µM
  relative viability: 1.05
LXF-289; first compound 0.1265 µM
  relative viability: 1.12
LXF-289; first compound 0.4 µM
  relative viability: 1.19
LXF-289; first compound 4 µM
  relative viability: 1.04
NCI-H2087; first compound 0.04 µM
  relative viability: 1.26
NCI-H2087; first compound 0.1265 µM
  relative viability: 1.17
NCI-H2087; first compound 0.4 µM
  relative viability: 1.46
NCI-H2087; first compound 4 µM
  relative viability: 0.954
RERF-LC-KJ; first compound 0.04 µM
  relative viability: 0.941
RERF-LC-KJ; first compound 0.1265 µM
  relative viability: 0.955
RERF-LC-KJ; first compound 4 µM
  relative viability: 0.929
BEN; first compound 0.04 µM
  relative viability: 0.612
BEN; first compound 0.1265 µM
  relative viability: 0.566
BEN; first compound 0.4 µM
  relative viability: 0.625
BEN; first compound 4 µM
  relative viability: 0.645
201T; first compound 0.04 µM
  relative viability: 0.5
201T; first compound 0.1265 µM
  relative viability: 0.544
201T; first compound 0.4 µM
  relative viability: 0.586
201T; first compound 4 µM
  relative viability: 0.478
NCI-H1355; first compound 0.04 µM
  relative viability: 0.799
NCI-H1355; first compound 0.1265 µM
  relative viability: 0.682
NCI-H1355; first compound 0.4 µM
  relative viability: 0.671
NCI-H1355; first compound 4 µM
  relative viability: 0.62
HCC-827; first compound 0.04 µM
  relative viability: 0.205
HCC-827; first compound 0.1265 µM
  relative viability: 0.188
HCC-827; first compound 0.4 µM
  relative viability: 0.201
HCC-827; first compound 4 µM
  relative viability: 0.161
NCI-H322M; first compound 0.04 µM
  relative viability: 0.527
NCI-H322M; first compound 0.1265 µM
  relative viability: 0.546
NCI-H322M; first compound 0.4 µM
  relative viability: 0.702
NCI-H322M; first compound 4 µM
  relative viability: 0.56
HCC-44; first compound 0.04 µM
  relative viability: 0.945
HCC-44; first compound 0.1265 µM
  relative viability: 1.01
HCC-44; first compound 0.4 µM
  relative viability: 1
HCC-44; first compound 4 µM
  relative viability: 0.913
HOP-62; first compound 0.04 µM
  relative viability: 0.445
HOP-62; first compound 0.1265 µM
  relative viability: 0.599
HOP-62; first compound 0.4 µM
  relative viability: 0.739
HOP-62; first compound 4 µM
  relative viability: 0.624
NCI-H1437; first compound 0.04 µM
  relative viability: 1.08
NCI-H1437; first compound 0.1265 µM
  relative viability: 1.09
NCI-H1437; first compound 0.4 µM
  relative viability: 1.12
NCI-H1437; first compound 4 µM
  relative viability: 0.95
LCLC-103H; first compound 0.04 µM
  relative viability: 0.798
LCLC-103H; first compound 0.1265 µM
  relative viability: 0.755
LCLC-103H; first compound 0.4 µM
  relative viability: 0.761
LCLC-103H; first compound 4 µM
  relative viability: 0.631

## CC(C)Oc1cc(Nc2nc(N[C@@H](C)c3ccc(F)cn3)ncc2Cl)n[nH]1 [AZ23] + NC(=O)Nc1cc(-c2cccc(F)c2)sc1C(=O)N[C@H]1CCCNC1 [AZD7762] (partner 0.2 µM)
NCI-H1793; first compound 0.01 µM
  relative viability: 0.361
NCI-H1793; first compound 0.03162 µM
  relative viability: 0.498
NCI-H1793; first compound 0.3162 µM
  relative viability: 1.3
NCI-H3122; first compound 0.01 µM
  relative viability: 1.22
NCI-H3122; first compound 0.03162 µM
  relative viability: 1.03
NCI-H3122; first compound 0.3162 µM
  relative viability: 1.02
LCLC-97TM1; first compound 0.01 µM
  relative viability: 0.239
LCLC-97TM1; first compound 0.03162 µM
  relative viability: 0.327
LCLC-97TM1; first compound 0.3162 µM
  relative viability: 0.175
NCI-H727; first compound 0.01 µM
  relative viability: 0.628
NCI-H727; first compound 0.03162 µM
  relative viability: 0.802
NCI-H727; first compound 0.3162 µM
  relative viability: 0.597
CAL-12T; first compound 0.01 µM
  relative viability: 0.614
CAL-12T; first compound 0.03162 µM
  relative viability: 0.689
CAL-12T; first compound 0.3162 µM
  relative viability: 0.717
NCI-H2405; first compound 0.01 µM
  relative viability: 0.538
NCI-H2405; first compound 0.03162 µM
  relative viability: 0.864
NCI-H2405; first compound 0.3162 µM
  relative viability: 0.843
NCI-H1395; first compound 0.03162 µM
  relative viability: 0.375
NCI-H1395; first compound 0.3162 µM
  relative viability: 0.432
NCI-H647; first compound 0.01 µM
  relative viability: 0.296
NCI-H647; first compound 0.03162 µM
  relative viability: 0.615
NCI-H647; first compound 0.3162 µM
  relative viability: 0.806
LXF-289; first compound 0.01 µM
  relative viability: 1.14
LXF-289; first compound 0.03162 µM
  relative viability: 1.24
LXF-289; first compound 0.3162 µM
  relative viability: 1.27
NCI-H2087; first compound 0.01 µM
  relative viability: 1.6
NCI-H2087; first compound 0.03162 µM
  relative viability: 1.41
NCI-H2087; first compound 0.3162 µM
  relative viability: 1.32
RERF-LC-KJ; first compound 0.01 µM
  relative viability: 1.09
RERF-LC-KJ; first compound 0.03162 µM
  relative viability: 1.02
RERF-LC-KJ; first compound 0.3162 µM
  relative viability: 1.11
BEN; first compound 0.01 µM
  relative viability: 0.659
BEN; first compound 0.03162 µM
  relative viability: 0.759
BEN; first compound 0.3162 µM
  relative viability: 0.746
201T; first compound 0.01 µM
  relative viability: 0.321
201T; first compound 0.03162 µM
  relative viability: 0.576
201T; first compound 0.3162 µM
  relative viability: 0.743
NCI-H1355; first compound 0.01 µM
  relative viability: 0.711
NCI-H1355; first compound 0.03162 µM
  relative viability: 0.808
NCI-H1355; first compound 0.3162 µM
  relative viability: 0.916
HCC-827; first compound 0.01 µM
  relative viability: 0.147
HCC-827; first compound 0.03162 µM
  relative viability: 0.223
HCC-827; first compound 0.3162 µM
  relative viability: 0.212
NCI-H322M; first compound 0.01 µM
  relative viability: 0.468
NCI-H322M; first compound 0.03162 µM
  relative viability: 0.527
NCI-H322M; first compound 0.3162 µM
  relative viability: 0.614
HCC-44; first compound 0.01 µM
  relative viability: 1.06
HCC-44; first compound 0.03162 µM
  relative viability: 1.01
HCC-44; first compound 0.3162 µM
  relative viability: 1.04
HOP-62; first compound 0.01 µM
  relative viability: 0.493
HOP-62; first compound 0.03162 µM
  relative viability: 0.804
HOP-62; first compound 0.3162 µM
  relative viability: 0.863
NCI-H1437; first compound 0.01 µM
  relative viability: 1.17
NCI-H1437; first compound 0.03162 µM
  relative viability: 1.18
NCI-H1437; first compound 0.3162 µM
  relative viability: 1.19
LCLC-103H; first compound 0.01 µM
  relative viability: 0.875
LCLC-103H; first compound 0.03162 µM
  relative viability: 0.87
LCLC-103H; first compound 0.3162 µM
  relative viability: 0.881
